Source: patent US20240360148A1 (SUVALENT THERAPEUTICS, INC., priority 2021, published 2024)
Values after ≈ are worked out from the molar mass of the structure shown. Like-named read-outs stand apart in the source and are kept apart here.

Key:
[1] = Plasma protein binding, equilibrium dialysis, mouse plasma; assay type: in vitro ADME; settings: 5 hours at 37° C., read-out: PPB % bound Mouse (converted)
Protocol: (§1) The compounds of interest were evaluated for various PK parameters. Specifically CACO permeability/efflux and plasma protein binding (PPP) were determined. Stock solutions were prepared at 10 mM in DMSO for test and reference compounds. Aliquots of the stock solution were diluted to 500× of final concentration (0.5 mM) with DMSO, then further diluted upon the addition of bank PE3-buffer to 20× of final concentration (20 μM). Then test and reference compounds were prepared in plasma at 1 μM. For 0 hour incubation: 25 μL of the plasma spiked with test and reference compounds was transferred into a 96-well sample preparation plate, and then 25 μL blank PB-buffer was added. The samples were quenched by 200 μL of IS solution to prepare [Initial]0h samples. For 5 hours incubation: 100 μL of the plasma spiking with test and reference compounds was loaded on donor side, and 100 μL of blank PB-buffer were loaded on receiver side of the equilibrium dialysis device. Samples were incubated in an air-bath shaker (60 rpm) for 5 hours at 37° C. After 5 hours incubation, 25 μL of samples (from both the donor sides and receiver sides of the dialysis apparatus) was aspirated and added into new sample preparation plates, separately. 25 μL of blank PB-buffer was added to donor side samples and 25 μL of blank plasma was added to receiver side samples to balance the matrix. The samples were quenched with 200 μL of IS solution. The assay plate was shaken at the vibrator (Hangzhou Allsheng, MX100-4A) for 10 min (600 rpm) and then centrifuged at 5,594×g for 15 min (Thermo Multifuge×3R). An aliquot of the 50 μL supernatant was taken from each well and diluted by 50 μL distilled water, then analyzed by UPLC-MS/MS.

[2] = Plasma protein binding, equilibrium dialysis, human plasma; assay type: in vitro ADME; settings: 5 hours at 37° C., read-out: PPB % bound Human (converted)
Protocol: as §1

[3] = tested on: sumoylation levels (SUMO 2/3 conjugates) in HCT-116 cells; assay: HCT-116 4 Hour Cell Assay (Western, SUMO 2/3 conjugates); assay type: cell-based; settings: Homo sapiens, HCT-116, 4 h, 4 h treatment, Anti-Sumo 2-3 immunoblot, read-out: HCT-116 Western 4 h IC50 (μM) Ave
Method in brief: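 Cells treated 4 h with 11 three-fold dilutions from 25 μM; lysed in RIPA with NEM and Benzonase. Non-reducing SDS-PAGE immunoblot with anti-SUMO 2/3 mAb, IRDye fluorescent detection; conjugate signal normalized to total protein stain, IC50 from quantified bands.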

SAE1 [4] = molecular target: SAE1 (Homo sapiens (Human), UniProt Q9UBT2); assay: SAE High Throughput Biochemical Assay (HTRF), 15 min preincubation; settings: SAE1 12.5 nM, ATP 100 μM
SAE1 (Homo sapiens (Human), UniProt Q9UBT2), sequence (Q9UBE0 whole entry): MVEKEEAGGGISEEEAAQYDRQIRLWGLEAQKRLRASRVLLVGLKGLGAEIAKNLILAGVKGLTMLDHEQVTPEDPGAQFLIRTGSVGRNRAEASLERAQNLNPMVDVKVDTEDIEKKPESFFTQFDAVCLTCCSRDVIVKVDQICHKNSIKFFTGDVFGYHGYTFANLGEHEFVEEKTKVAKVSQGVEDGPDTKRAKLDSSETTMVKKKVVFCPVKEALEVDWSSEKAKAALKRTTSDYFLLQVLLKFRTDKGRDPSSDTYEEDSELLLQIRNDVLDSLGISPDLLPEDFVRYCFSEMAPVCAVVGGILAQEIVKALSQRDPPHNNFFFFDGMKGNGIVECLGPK
SAE1 (Homo sapiens (Human), UniProt Q9UBT2), sequence (Q9UBT2 whole entry): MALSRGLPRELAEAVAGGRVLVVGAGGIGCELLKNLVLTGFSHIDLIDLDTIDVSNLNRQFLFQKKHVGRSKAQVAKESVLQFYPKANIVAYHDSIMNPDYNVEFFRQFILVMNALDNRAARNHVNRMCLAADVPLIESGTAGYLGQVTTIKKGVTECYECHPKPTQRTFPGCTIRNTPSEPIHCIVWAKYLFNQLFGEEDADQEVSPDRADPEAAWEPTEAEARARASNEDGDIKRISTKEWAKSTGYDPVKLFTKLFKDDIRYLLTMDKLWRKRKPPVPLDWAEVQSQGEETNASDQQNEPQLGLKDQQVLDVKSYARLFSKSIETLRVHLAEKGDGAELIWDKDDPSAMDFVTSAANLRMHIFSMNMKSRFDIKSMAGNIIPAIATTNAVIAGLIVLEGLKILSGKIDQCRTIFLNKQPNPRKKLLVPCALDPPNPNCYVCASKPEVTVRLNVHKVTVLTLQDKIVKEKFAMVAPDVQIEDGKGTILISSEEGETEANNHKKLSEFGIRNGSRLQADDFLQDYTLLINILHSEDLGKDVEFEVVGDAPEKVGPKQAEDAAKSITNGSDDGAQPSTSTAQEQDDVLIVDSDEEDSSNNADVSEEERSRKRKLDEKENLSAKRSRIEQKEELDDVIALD
Method in brief: (§2)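 SAE1 (12.5 nM) was preincubated with compound for 15 min at RT in HEPES pH 7.5, 0.1% BSA, 10 mM MgCl2. The reaction was then started with SUMO-GST and UBC9-His (40 nM each) plus 100 μM ATP for 45 min. After KF stop, HTRF (anti-GST-XL665/anti-His-EuK) was read at 2 h and overnight; some compounds were tested singly at 25 micromolar as percent of control.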

SAE1 [5] = molecular target: SAE1 (Homo sapiens (Human), UniProt Q9UBE0+Q9UBT2); assay: as above; settings: read-out: 15 min preincubation HTRF IC50 (μM) Ave, SAE1 12.5 nM, ATP 100 μM
SAE1 (Homo sapiens (Human), UniProt Q9UBE0+Q9UBT2), sequence (Q9UBE0 whole entry): as the sequence (Q9UBE0 whole entry) above
SAE1 (Homo sapiens (Human), UniProt Q9UBE0+Q9UBT2), sequence (Q9UBT2 whole entry): as the sequence (Q9UBT2 whole entry) above
Method in brief: as §2

[6] = Caco-2 permeability/efflux; assay type: in vitro ADME; settings: human, Caco-2, pH 7.4; B-A / A-B
Protocol: (§3) Caco-2 cells were obtained from American Tissue Culture Collection (Rockville, MD). The cells were maintained in Modified Eagle's medium (MEM), containing 10% heat-inactivated fetal bovine serum (FBS), and 1% non-essential amino acids, in CO2 at 37° C. Cells were seeded on polycarbonate filter inserts (Millipore, CAT #PSHT 010 R5). The cells were cultured for 21-28 days prior to the permeability experiments. The Lucifer Yellow permeability was checked before and after the assay. Compounds were dissolved at 10 mM in 100% dimethyl sulfoxide (DMSO) and diluted for studies in Hanks Balanced Salt Solution (HBSS, Invitrogen, Cat #14025-092) with 25 mM HEPES, pH 7.4. Compounds were tested at 10 µM in both the apical-to-basolateral (A-B) and basolateral-to-apical (B-A) directions, incubations were conducted at 37° C. for 90 min. At the end of incubation, samples were diluted by assay buffer, and analyzed by LC-MS/MS. The concentrations of the compounds were quantified by standard curve. The first comparator example (Comp. Ex. 1) is the chloro substituted thienodihydropyridine

Caco-2 cells = assay: Caco-2 permeability/efflux; assay type: in vitro ADME; settings: 10 uM, 37° C., 90 min, pH 7.4
Protocol: as §3

Solubility Evaluation = assay type: physicochemical; settings: kinetic from dmso stock, 1 hour at RT
Protocol: The compounds of interest were evaluated for their solubility in various biological solutions. Specifically, aliquots (8 μL) of reference and test compound stock solutions (10 mM) were added into 792 μL of buffer (PBS, pH7.4, FaSSIF, pH 6.5, or FaSSGF, pH 1.6) respectively (Final DMSO conc.: 1%). Sample tubes were shaken for 1 hour (1000 rpm) at RT. The experiment was calibrated using 300 μM spiked solution (SS) in MeOH/CAN (4:1) by adding 6 μL of 10 mM compound stock solution in 194 μL MeOH/ACN(4:1) ranging from 60 μM to 0.02 μM. The samples were centrifuged (10 min-12000 rpm) to precipitate un-dissolved particles. The supernatants were transferred to a new tube or plate. Supernatants were diluted 10 times and 100 times with 100 mM buffer then analyzed by LC-MS/MS. SGF=simulated gastric fluid, SIF=simulated intestinal fluid, PBS=phosphate buffered saline pH 7.4 Values are noted in μM.

[7] = PBS (phosphate buffered saline), aqueous buffer, phosphate buffered saline pH 7.4, 1% DMSO, read-out: Solubilities PBS
[8] = simulated intestinal fluid (FaSSIF, pH 6.5), 1% DMSO, read-out: Solubilities SIF

fraction unbound at 5 h, 1 μM [1] | fraction unbound at 5 h, 1 μM [2] | IC50 [3] | Structure (SMILES) | IC50 (SAE1 [4]) | also measured
< 0.003 | 0.008 | – | CCn1cc(-c2ccccc2[C@@H]2CN(C(=O)/C=C/CN(C)C)Cc3sc(Cl)cc32)c(C(F)(F)F)n1 [Comp. Ex. 2, reference compound] | – | –
< 0.001 | 0.002 | – | C=CC(=O)N1Cc2sc(Cl)cc2[C@H](c2ccccc2-c2cn(CC)nc2C(F)(F)F)C1 [Comp. Ex. 1, reference compound] | – | –
– | – | 2.72 µM | CCn1cc(-c2ccccc2[C@@H]2CN(C(=O)/C=C/[C@@H](C)N)Cc3sc(C#N)cc32)c(C(F)(F)F)n1 [Example 47, (S)-6-((R, E)-4-aminopent-2-enoyl)-4-(2-(1-ethyl-3-(trifluoromethyl)-1 H-pyrazol-4-yl)phenyl)-4,5,6,7-tetrahydrothieno[2,3-c]pyridine-2-carbonitrile] | 3370 nM | –
0.021 | – | 0.057 µM | C=CC(=O)N1Cc2sc(C#N)cc2[C@H](c2cccc(F)c2-c2cn(CC)nc2C(F)(F)F)C1 [Compound 227] | – | IC50 (SAE1 [5]): 0.12 µM
0.035 | 0.049 | 0.353 µM | CCn1cc(-c2ccccc2[C@@H]2CN(C(=O)/C=C/CNC)Cc3sc(C#N)cc32)c(C(F)(F)F)n1 [Example 12, (S, E)-4-(2-(1-Ethyl-3-(trifluoromethyl)-1 H-pyrazol-4-yl)phenyl)-6-(4-(methylamino)but-2-enoyl)-4,5,6,7-tetrahydrothieno[2,3-c]pyridine-2-carbonitrile] | 3330 nM | efflux ratio at 90 min, 10 μM [6]: 5; Caco-2 apparent permeability (Papp) (Caco-2 cells; apical-to-basolateral): 5 10^-6 cm/s; Caco-2 apparent permeability (Papp) (Caco-2 cells; basolateral-to-apical): 58 10^-6 cm/s
– | – | 0.214 µM | CCn1cc(-c2ccccc2[C@@H]2CN(C(=O)/C=C/C(F)(F)F)Cc3sc(C#N)cc32)c(C(F)(F)F)n1 [Example 22, (S, E)-4-(2-(1-ethyl-3-(trifluoromethyl)-1 H-pyrazol-4-yl)phenyl)-6-(4,4,4-trifluorobut-2-enoyl)-4,5,6,7-tetrahydrothieno[2,3-c]pyridine-2-carbonitrile] | 390 nM | –
0.014 | 0.032 | 0.114 µM | CCn1cc(-c2c(F)cccc2[C@@H]2CN(C(=O)/C=C/[C@@H]3CCCN3)Cc3sc(C#N)cc32)c(C(F)(F)F)n1 [Example 118, (S)-4-(2-(1-Ethyl-3-(trifluoromethyl)-1H-pyrazol-4-yl)-3-fluorophenyl)-6-((E)-3-((S)pyrrolidin-2-yl)acryloyl)-4,5,6,7-tetrahydrothieno[2,3-c]pyridine-2-carbonitrile] | – | IC50 (SAE1 [5]): 0.29 µM; solubility at 1 h (Solubility Evaluation; [7]): 57 µM (≈ 31 µg/mL); solubility at 1 h (Solubility Evaluation; [8]): 70 µM (≈ 38.1 µg/mL); Caco-2 apparent permeability (Papp) (Caco-2 cells; apical-to-basolateral): 4 10^-6 cm/s; Caco-2 apparent permeability (Papp) (Caco-2 cells; basolateral-to-apical): 21 10^-6 cm/s
– | – | 0.169 µM | CCn1cc(-c2c(F)cccc2[C@@H]2CN(C(=O)/C=C/[C@@H]3CCCN3)Cc3sc(C#N)c(C)c32)c(C(F)(F)F)n1 [Example 249, (S)-4-(2-(1-ethyl-3-(trifluoromethyl)-1 H-pyrazol-4-yl)-3-fluorophenyl)-3-methyl-6-((E)-3-((S)-pyrrolidin-2-yl)acryloyl)-4,5,6,7-tetrahydrothieno[2,3-c]pyridine-2-carbonitrile] | 140 nM | –
– | – | 3.05 µM | CCn1cc(-c2ccccc2[C@@H]2CN(C(=O)/C=C/[C@H]3CCCN3C)Cc3sc(C#N)cc32)c(C(F)(F)F)n1 [Example 90, (S)-4-(2-(1-Ethyl-3-(trifluoromethyl)-1 H-pyrazol-4-yl)phenyl)-6-((E)-3-((R)-1-methylpyrrolidin-2-yl)acryloyl)-4,5,6,7-tetrahydrothieno[2,3-c]pyridine-2-carbonitrile] | 5680 nM | –
– | – | 1.16 µM | CCn1cc(-c2ccccc2[C@@H]2CN(C(=O)/C=C/CNC3(C)CC3)Cc3sc(C#N)cc32)c(C(F)(F)F)n1 [Example 94, (S,E)-4-(2-(1-Ethyl-3-(trifluoromethyl)-1H pyrazol-4-yl)phenyl)-6-(4-((1-methylcyclopropyl)amino)but-2-enoyl)-4,5,6,7-tetrahydrothieno[2,3-c]pyridine-2-carbonitrile] | 1860 nM | –
– | – | 3.12 µM | CCn1cc(-c2ccccc2[C@@H]2CN(C(=O)C#CC(C)(C)N)Cc3sc(C#N)cc32)c(C(F)(F)F)n1 [Example 134, (S)-6-(4-Amino-4-methylpent-2-ynoyl)-4-(2-(1-ethyl-3-(trifluoromethyl)-1H-pyrazol-4-yl)phenyl)-4,5,6,7-tetrahydrothieno[2,3-c]pyridine-2-carbonitrile] | 320 nM | –
0.024 | 0.029 | 0.145 µM | CCn1cc(-c2c(F)cccc2[C@@H]2CN(C(=O)/C=C/[C@H](C)NC)Cc3sc(C#N)cc32)c(C(F)(F)F)n1 [Example 89, (S)-4-(2-(1-Ethyl-3-(trifluoromethyl)-1 H pyrazol-4-yl)-3-fluorophenyl)-6-((S, E)-4-(methylamino)pent-2-enoyl)-4,5,6,7-tetrahydrothieno[2,3-c]pyridine-2-carbonitrile] | – | IC50 (SAE1 [5]): 1.13 µM; solubility at 1 h (Solubility Evaluation; [7]): 78 µM (≈ 41.5 µg/mL); solubility at 1 h (Solubility Evaluation; [8]): 90 µM (≈ 47.8 µg/mL); Caco-2 apparent permeability (Papp) (Caco-2 cells; apical-to-basolateral): 8 10^-6 cm/s; Caco-2 apparent permeability (Papp) (Caco-2 cells; basolateral-to-apical): 11 10^-6 cm/s
– | – | 0.1 µM | CNC/C=C/C(=O)N1Cc2sc(C#N)c(C)c2[C@H](c2cccc(F)c2-c2cn(C)nc2C(F)(F)F)C1 [Example 216, (S,E)-4-(3-fluoro-2-(1-methyl-3-(trifluoromethyl)-1 H-pyrazol-4-yl)phenyl)-3-methyl-6-(4-(methylamino)but-2-enoyl)-4,5,6,7-tetrahydrothieno[2,3-c]pyridine-2-carbonitrile] | 180 nM | –
– | – | 0.285 µM | CCn1cc(-c2ccccc2[C@@H]2CN(C(=O)/C=C/C(C)N(C)C)Cc3sc(C#N)cc32)c(C(F)(F)F)n1 (stereo partly shown) [Compound 235] | 4150 nM | –
